Assay results published in patent US20260232767A1, “INTERLEUKIN-23 RECEPTOR ANTAGONIST PEPTIDES FOR USE IN THE TREATMENT OF PSORIASIS” (Janssen Pharmaceutica NV, priority 2023, published 2026).

System: subjects with moderate-to-severe plaque psoriasis
Test: IGA score, Example 2
Assay type: in vivo, human
Text: Described below is a multicenter, long-term extension (LTE), double-blind, dose-ranging, parallel group interventional study in participants from Example 1 to evaluate the long-term efficacy and safety of the hydrochloride salt of the compound of Formula (I) for the treatment of moderate-to-severe plaque psoriasis. Patients from Example 1 continued to receive the same dose of the compound of Formula (I) for an additional 36-week treatment period with a 4-week safety follow up period after the last administration of the compound of Formula (I). Patients randomized to placebo in Example 1 received the compound of Formula (I) at a dose of 100 mg QD starting at Week 16 of Example 1 (FIG. 21).
Secondary endpoints included additional change from baseline of Example 1 in PASI, IGA, and PSSD at Week 52, including the proportions of subjects that achieved PAST 90, PAST 100, an IGA score of cleared (0) or minimal (1), PSSD symptoms score=0, and PSSD signs score=0.

[1] = Week 20, Placebo → 100 mg QD, N=35
[2] = Week 24, Placebo → 100 mg QD, N=35
[3] = Week 28, Placebo → 100 mg QD, N=35
[4] = Week 32, Placebo → 100 mg QD, N=35
[5] = Week 40, Placebo → 100 mg QD, N=35
[6] = Week 52, Placebo → 100 mg QD, N=35

CC(=O)NCCCC[C@@H]1NC(=O)[C@H](Cc2c[nH]c3c(C)cccc23)NC(=O)[C@H]([C@@H](C)O)NC(=O)[C@H](CC(N)=O)NC(=O)[C@@H](NC(C)=O)C(C)(C)SSC(C)(C)[C@@H](C(=O)N[C@@H](Cc2ccc(OCCN)cc2)C(=O)N[C@@H](Cc2ccc3ccccc3c2)C(=O)NC2(C(=O)N[C@@H](CCC(=O)O)C(=O)N[C@@H](CC(N)=O)C(=O)N[C@@H](Cc3cccnc3)C(=O)N(C)CC(N)=O)CCOCC2)NC1=O [IL-23 receptor antagonist peptide, Ac-[Pen]*-N-T-[W(7-Me)]-[Lys(Ac)]-[Pen]*-Phe[4-(2-aminoethoxy)]-[2-Nal]-[THP]-E-N-[3-Pal]-Sarc-NH2 (*[Pen]-[Pen]* formdisulfidebond)]
IGA Score ≤2 (‘Mild’or better), subjects (%) (Week 20, 100 mg QD, N=43): (72.1%) | IGA Score = 0 (‘Cleared’) or 1 (‘Minimal’), subjects (%) [1]: (28.6%) | IGA Score = 0 (‘Cleared’), subjects (%) [1]: (5.7%) | IGA Score ≤2 (‘Mild’or better), subjects (%) [1]: (71.4%) | IGA Score = 0 (‘Cleared’) or 1 (‘Minimal’), subjects (%) (Week 24, 25 mg BID, N=41): (39.0%) | IGA Score = 0 (‘Cleared’), subjects (%) (Week 24, 25 mg BID, N=41): (19.5%) | IGA Score ≤2 (‘Mild’or better), subjects (%) (Week 24, 25 mg BID, N=41): (75.6%) | IGA Score = 0 (‘Cleared’) or 1 (‘Minimal’), subjects (%) (Week 24, 25 mg QD, N=43): (37.2%) | IGA Score = 0 (‘Cleared’), subjects (%) (Week 24, 25 mg QD, N=43): (16.3%) | IGA Score ≤2 (‘Mild’or better), subjects (%) (Week 24, 25 mg QD, N=43): (67.4%) | IGA Score = 0 (‘Cleared’) or 1 (‘Minimal’), subjects (%) (Week 24, 50 mg QD, N=43): (60.5%) | IGA Score = 0 (‘Cleared’), subjects (%) (Week 24, 50 mg QD, N=43): (32.6%) | IGA Score ≤2 (‘Mild’or better), subjects (%) (Week 24, 50 mg QD, N=43): (81.4%) | IGA Score = 0 (‘Cleared’) or 1 (‘Minimal’), subjects (%) (Week 24, 100 mg BID, N=42): (73.8%) | IGA Score = 0 (‘Cleared’), subjects (%) (Week 24, 100 mg BID, N=42): (38.1%) | IGA Score ≤2 (‘Mild’or better), subjects (%) (Week 24, 100 mg BID, N=42): (78.6%) | IGA Score = 0 (‘Cleared’) or 1 (‘Minimal’), subjects (%) (Week 24, 100 mg QD, N=43): (65.1%) | IGA Score = 0 (‘Cleared’), subjects (%) (Week 24, 100 mg QD, N=43): (23.3%) | IGA Score ≤2 (‘Mild’or better), subjects (%) (Week 24, 100 mg QD, N=43): (76.7%) | IGA Score = 0 (‘Cleared’) or 1 (‘Minimal’), subjects (%) [2]: (54.3%) | IGA Score = 0 (‘Cleared’), subjects (%) [2]: (14.3%) | IGA Score ≤2 (‘Mild’or better), subjects (%) [2]: (85.7%) | IGA Score = 0 (‘Cleared’) or 1 (‘Minimal’), subjects (%) (Week 28, 25 mg BID, N=41): (41.5%) | IGA Score = 0 (‘Cleared’), subjects (%) (Week 28, 25 mg BID, N=41): (19.5%) | IGA Score ≤2 (‘Mild’or better), subjects (%) (Week 28, 25 mg BID, N=41): (73.2%) | IGA Score = 0 (‘Cleared’) or 1 (‘Minimal’), subjects (%) (Week 28, 25 mg QD, N=43): (37.2%) | IGA Score = 0 (‘Cleared’), subjects (%) (Week 28, 25 mg QD, N=43): (18.6%) | IGA Score ≤2 (‘Mild’or better), subjects (%) (Week 28, 25 mg QD, N=43): (65.1%) | IGA Score = 0 (‘Cleared’) or 1 (‘Minimal’), subjects (%) (Week 28, 50 mg QD, N=43): (62.8%) | IGA Score = 0 (‘Cleared’), subjects (%) (Week 28, 50 mg QD, N=43): (16.3%) | IGA Score ≤2 (‘Mild’or better), subjects (%) (Week 28, 50 mg QD, N=43): (76.7%) | IGA Score = 0 (‘Cleared’) or 1 (‘Minimal’), subjects (%) (Week 28, 100 mg BID, N=42): (64.3%) | IGA Score = 0 (‘Cleared’), subjects (%) (Week 28, 100 mg BID, N=42): (42.9%) | IGA Score ≤2 (‘Mild’or better), subjects (%) (Week 28, 100 mg BID, N=42): (78.6%) | IGA Score = 0 (‘Cleared’) or 1 (‘Minimal’), subjects (%) (Week 28, 100 mg QD, N=43): (62.8%) | IGA Score = 0 (‘Cleared’), subjects (%) (Week 28, 100 mg QD, N=43): (25.6%) | IGA Score ≤2 (‘Mild’or better), subjects (%) (Week 28, 100 mg QD, N=43): (74.4%) | IGA Score = 0 (‘Cleared’) or 1 (‘Minimal’), subjects (%) [3]: (60.0%) | IGA Score = 0 (‘Cleared’), subjects (%) [3]: (17.1%) | IGA Score ≤2 (‘Mild’or better), subjects (%) [3]: (85.7%) | IGA Score = 0 (‘Cleared’) or 1 (‘Minimal’), subjects (%) (Week 32, 25 mg BID, N=41): (46.3%) | IGA Score = 0 (‘Cleared’), subjects (%) (Week 32, 25 mg BID, N=41): (22.0%) | IGA Score ≤2 (‘Mild’or better), subjects (%) (Week 32, 25 mg BID, N=41): (73.2%) | IGA Score = 0 (‘Cleared’) or 1 (‘Minimal’), subjects (%) (Week 32, 25 mg QD, N=43): (39.5%) | IGA Score = 0 (‘Cleared’), subjects (%) (Week 32, 25 mg QD, N=43): (18.6%) | IGA Score ≤2 (‘Mild’or better), subjects (%) (Week 32, 25 mg QD, N=43): (60.5%) | IGA Score = 0 (‘Cleared’) or 1 (‘Minimal’), subjects (%) (Week 32, 50 mg QD, N=43): (58.1%) | IGA Score = 0 (‘Cleared’), subjects (%) (Week 32, 50 mg QD, N=43): (30.2%) | IGA Score ≤2 (‘Mild’or better), subjects (%) (Week 32, 50 mg QD, N=43): (79.1%) | IGA Score = 0 (‘Cleared’) or 1 (‘Minimal’), subjects (%) (Week 32, 100 mg BID, N=42): (66.7%) | IGA Score = 0 (‘Cleared’), subjects (%) (Week 32, 100 mg BID, N=42): (40.5%) | IGA Score ≤2 (‘Mild’or better), subjects (%) (Week 32, 100 mg BID, N=42): (78.6%) | IGA Score = 0 (‘Cleared’) or 1 (‘Minimal’), subjects (%) (Week 32, 100 mg QD, N=43): (67.4%) | IGA Score = 0 (‘Cleared’), subjects (%) (Week 32, 100 mg QD, N=43): (25.6%) | IGA Score ≤2 (‘Mild’or better), subjects (%) (Week 32, 100 mg QD, N=43): (76.7%) | IGA Score = 0 (‘Cleared’) or 1 (‘Minimal’), subjects (%) [4]: (65.7%) | IGA Score = 0 (‘Cleared’), subjects (%) [4]: (20.0%) | IGA Score ≤2 (‘Mild’or better), subjects (%) [4]: (80.0%) | IGA Score = 0 (‘Cleared’) or 1 (‘Minimal’), subjects (%) (Week 40, 25 mg BID, N=41): (31.7%) | IGA Score = 0 (‘Cleared’), subjects (%) (Week 40, 25 mg BID, N=41): (17.1%) | IGA Score ≤2 (‘Mild’or better), subjects (%) (Week 40, 25 mg BID, N=41): (68.3%) | IGA Score = 0 (‘Cleared’) or 1 (‘Minimal’), subjects (%) (Week 40, 25 mg QD, N=43): (41.9%) | IGA Score = 0 (‘Cleared’), subjects (%) (Week 40, 25 mg QD, N=43): (11.6%) | IGA Score ≤2 (‘Mild’or better), subjects (%) (Week 40, 25 mg QD, N=43): (67.4%) | IGA Score = 0 (‘Cleared’) or 1 (‘Minimal’), subjects (%) (Week 40, 50 mg QD, N=43): (58.1%) | IGA Score = 0 (‘Cleared’), subjects (%) (Week 40, 50 mg QD, N=43): (23.3%) | IGA Score ≤2 (‘Mild’or better), subjects (%) (Week 40, 50 mg QD, N=43): (79.1%) | IGA Score = 0 (‘Cleared’) or 1 (‘Minimal’), subjects (%) (Week 40, 100 mg BID, N=42): (66.7%) | IGA Score = 0 (‘Cleared’), subjects (%) (Week 40, 100 mg BID, N=42): (40.5%) | IGA Score ≤2 (‘Mild’or better), subjects (%) (Week 40, 100 mg BID, N=42): (78.6%) | IGA Score = 0 (‘Cleared’) or 1 (‘Minimal’), subjects (%) (Week 40, 100 mg QD, N=43): (65.1%) | IGA Score = 0 (‘Cleared’), subjects (%) (Week 40, 100 mg QD, N=43): (27.9%) | IGA Score ≤2 (‘Mild’or better), subjects (%) (Week 40, 100 mg QD, N=43): (69.8%) | IGA Score = 0 (‘Cleared’) or 1 (‘Minimal’), subjects (%) [5]: (57.1%) | IGA Score = 0 (‘Cleared’), subjects (%) [5]: (31.4%) | IGA Score ≤2 (‘Mild’or better), subjects (%) [5]: (74.3%) | IGA Score = 0 (‘Cleared’) or 1 (‘Minimal’), subjects (%) (Week 52, 25 mg BID, N=41): (46.3%) | IGA Score = 0 (‘Cleared’), subjects (%) (Week 52, 25 mg BID, N=41): (19.5%) | IGA Score ≤2 (‘Mild’or better), subjects (%) (Week 52, 25 mg BID, N=41): (63.4%) | IGA Score = 0 (‘Cleared’) or 1 (‘Minimal’), subjects (%) (Week 52, 25 mg QD, N=43): (37.2%) | IGA Score = 0 (‘Cleared’), subjects (%) (Week 52, 25 mg QD, N=43): (14.0%) | IGA Score ≤2 (‘Mild’or better), subjects (%) (Week 52, 25 mg QD, N=43): (55.8%) | IGA Score = 0 (‘Cleared’) or 1 (‘Minimal’), subjects (%) (Week 52, 50 mg QD, N=43): (60.5%) | IGA Score = 0 (‘Cleared’), subjects (%) (Week 52, 50 mg QD, N=43): (23.3%) | IGA Score ≤2 (‘Mild’or better), subjects (%) (Week 52, 50 mg QD, N=43): (79.1%) | IGA Score = 0 (‘Cleared’) or 1 (‘Minimal’), subjects (%) (Week 52, 100 mg BID, N=42): (73.8%) | IGA Score = 0 (‘Cleared’), subjects (%) (Week 52, 100 mg BID, N=42): (42.9%) | IGA Score ≤2 (‘Mild’or better), subjects (%) (Week 52, 100 mg BID, N=42): (76.2%) | IGA Score = 0 (‘Cleared’) or 1 (‘Minimal’), subjects (%) (Week 52, 100 mg QD, N=43): (60.5%) | IGA Score = 0 (‘Cleared’), subjects (%) (Week 52, 100 mg QD, N=43): (30.2%) | IGA Score ≤2 (‘Mild’or better), subjects (%) (Week 52, 100 mg QD, N=43): (67.4%) | IGA Score = 0 (‘Cleared’) or 1 (‘Minimal’), subjects (%) [6]: (65.7%) | IGA Score = 0 (‘Cleared’), subjects (%) [6]: (31.4%) | IGA Score ≤2 (‘Mild’or better), subjects (%) [6]: (77.1%)
